Experimental data: patent US20150289514A1 (priority 2012, published 2015)

How the values were obtained:
Type in all cases: in vivo
Phytophthora infestans = conditions: tomatoes, preventive spray, 1 ppm a.i., evaluated 3 days after inoculation
Alternaria solani = test: Alternaria test (tomatoes)/preventive; conditions: preventive spray, evaluated 3 days after inoculation
Venturia inaequalis = test: Venturia test (apples)/preventive; conditions: preventive spray, evaluated 10 days after inoculation

Compound	Efficacy in % found (Phytophthora infestans) [%]	Efficacy in % found (Alternaria solani; 1 ppm a.i.) [%]	Efficacy in % found (Venturia inaequalis; 1 ppm a.i.) [%]	Efficacy in % found (Alternaria solani; 0.5 ppm a.i.) [%]	Efficacy in % found (Venturia inaequalis; 0.25 ppm a.i.) [%]
CO/C=C(/C(=O)OC)c1ccccc1Oc1cc(Oc2ccccc2C#N)ncn1 [F107, azoxystrobin]	61	39			
CSC1=N[C@@](C)(c2ccccc2)C(=O)N1Nc1ccccc1 [F114, fenamidone]	37				
COC(=O)N(OC)c1ccccc1COc1ccn(-c2ccc(Cl)cc2)n1 [F121, pyraclostrobin]			65	30	
CON=C(C(=O)OC)c1ccccc1CON=C(C)c1cccc(C(F)(F)F)c1 [F126, trifloxystrobin]		38			60
